Data taken from ChEMBL document CHEMBL1134225, “Potent synthetic inhibitors of tyrosyl tRNA synthetase derived from C-pyranosyl analogues of SB-219383” (Bioorg Med Chem Lett, 2001).
pIC50: −log10 of the molar value. Blank lines part the entries; values can stand above or below the compound they belong to.

Key:
[1] = Inhibitory activity against Staphylococcus aureus tyrosyl tRNA synthetase (YRS) using aminoacylation assay
[2] = Inhibitory activity against Staphylococcus aureus tyrosyl tRNA synthetase (YRS) using aminoacylation assay; NI = No inhibition
[3] = Inhibitory activity (3 uM) against Staphylococcus aureus tyrosyl tRNA synthetase (YRS) using aminoacylation assay

pIC50 [1]: 7.00
Compound: N[C@@H](Cc1ccc(O)cc1)C(=O)N[C@H](C(=O)O)[C@@H]1OC[C@H](O)[C@H](O)[C@H]1O

IC50 [2]: Not Active
Compound: N[C@@H](Cc1ccc(O)cc1)C(=O)NC(C(=O)O)[C@@H]1O[C@H](CO)[C@@H](O)[C@H](O)[C@H]1O (stereo partly drawn)

inhibition [3]: 71%
Compound: N[C@@H](Cc1ccc(O)cc1)C(=O)N[C@H](C(=O)O)[C@@H]1OC[C@H](O)[C@@H](O)[C@H]1O
